pIC50: −log10 of the molar value. Calls of active or inactive are those of the source. The rule behind the calls is not given here.
Columns and labels:
HCT-116 [1] = experiment: Induction of apoptosis in human HCT116 cells harboring wild-type p53 assessed as upregulation of cyclinB1 measured after 48 hrs by Hoechst staining based assay; assay type: functional, cell-based
MDA-MB-231 [2] = experiment: Induction of apoptosis in human MDA-MB-231 cells harboring p53 mutant assessed as upregulation of cyclinB1 after 18 hrs by Hoechst staining based assay; assay type: functional, cell-based
MDA-MB-231 [3] = experiment: Cell cycle arrest in human MDA-MB-231 cells harboring p53 mutant assessed as mitotic index at 10 uM measured after 48 hrs by Hoechst staining based fluorescence assay (reference value: 2.1); assay type: functional
HCT-116 [4] = experiment: Cell cycle arrest in human HCT116 cells assessed as accumulation at G1/S phase by Hoechst staining based fluorescence assay; assay type: functional
HaCaT [5] = experiment: Cytotoxicity against human HaCaT cells assessed as cell viability after 48 hrs by Hoechst 33342 staining based assay; assay type: functional
[6] = Selectivity index, ratio of IC50 for human fibroblasts to IC50 for human HaCaT cells
MDA-MB-231 [7] = experiment: Induction of apoptosis in human MDA-MB-231 cells harboring p53 mutant assessed as increase in late apoptosis at 2 times IC50 after 24 hrs by YoPro/propidium iodide/Hoechst staining based assay; assay type: functional, cell-based
Caco-2 [8] = experiment: Cell cycle arrest in human Caco2 cells assessed as accumulation at S phase at 25 uM measured after 48 hrs by Hoechst/BrdU staining based fluorescence assay (reference value: […]); assay type: functional
MDA-MB-231 [9] = experiment: Cytotoxicity against human MDA-MB-231 cells assessed as cell survival at 50 uM after 48 hrs by Hoechst 33342 staining based assay relative to control; assay type: functional; conditions: MDA-MB-231, 48 h, read-out: Survival
Caco-2 [10] = experiment: Cell cycle arrest in human Caco2 cells assessed as accumulation at M phase by Hoechst staining based fluorescence assay; assay type: functional
MDA-MB-231 [11] = experiment: Induction of apoptosis in human MDA-MB-231 cells harboring p53 mutant assessed as increase in cleaved caspase3 at 2 times IC50 after 24 hrs by Hoechst staining based assay; assay type: functional, cell-based
[12] = Selectivity index, ratio of IC50 for human fibroblasts to IC50 for human Caco2 cells
PC-3 [13] = experiment: Induction of apoptosis in human PC3 cells harboring p53 mutant assessed as upregulation of cyclinB1 after 48 hrs by Hoechst staining based assay; assay type: functional, cell-based
NCI-H727 [14] = experiment: Cell cycle arrest in human NCI-H727 cells harboring p53 mutant assessed as mitotic index at 10 uM measured after 48 hrs by Hoechst staining based fluorescence assay (reference value: 1.1); assay type: functional
[15] = Selectivity index, ratio of IC50 for human fibroblasts to IC50 for human MDA-MB-231 cells
Huh-7 [16] = experiment: Cytotoxicity against human HuH7 cells assessed as cell survival at 50 uM after 48 hrs by Hoechst 33342 staining based assay relative to control; assay type: functional; conditions: Huh-7, 48 h, read-out: Survival
PC-3 [17] = experiment: Induction of apoptosis in human PC3 cells harboring p53 mutant assessed as increase in cleaved caspase3 at 2 times IC50 after 48 hrs by Hoechst staining based assay; assay type: functional, cell-based
PC-3 [18] = experiment: Cell cycle arrest in human PC3 cells harboring p53 mutant assessed as accumulation at S phase at 25 uM measured after 48 hrs by Hoechst/BrdU staining based fluorescence assay (reference value: 40.8%); assay type: functional
PC-3 [19] = experiment: Cytotoxicity against human PC3 cells assessed as cell viability after 48 hrs by Hoechst 33342 staining based assay; assay type: functional; conditions: PC-3, 48 h
[20] = Selectivity index, ratio of IC50 for human fibroblasts to IC50 for human HuH7 cells
HCT-116 [21] = experiment: Cytotoxicity against human HCT116 cells assessed as cell survival at 50 uM after 48 hrs by Hoechst 33342 staining based assay relative to control; assay type: functional; conditions: HCT-116, 48 h, read-out: Survival
Caco-2 [22] = experiment: Cytotoxicity against human Caco2 cells assessed as cell viability after 48 hrs by Hoechst 33342 staining based assay; assay type: functional; conditions: Caco-2, 48 h
Huh-7 [23] = experiment: Cytotoxicity against human HuH7 cells assessed as cell viability after 48 hrs by Hoechst 33342 staining based assay; assay type: functional; conditions: Huh-7, 48 h
[24] = Selectivity index, ratio of IC50 for human fibroblasts to IC50 for human NCI-H727 cells
Caco-2 [25] = experiment: Cytotoxicity against human Caco2 cells assessed as cell survival at 50 uM after 48 hrs by Hoechst 33342 staining based assay relative to control; assay type: functional; conditions: Caco-2, 48 h, read-out: Survival
NCI-H727 [26] = experiment: Cytotoxicity against human NCI-H727 cells assessed as cell viability after 48 hrs by Hoechst 33342 staining based assay; assay type: functional; conditions: NCI-H727, 48 h
HaCaT [27] = experiment: Cell cycle arrest in human HaCaT cells harboring […] p53 assessed as accumulation at S phase at 25 uM measured after 48 hrs by Hoechst/BrdU staining based fluorescence assay (reference value: 52.3%); assay type: functional
PC-3 [28] = experiment: Cell cycle arrest in human PC3 cells harboring p53 mutant assessed as mitotic index at 25 uM measured after 48 hrs by Hoechst staining based fluorescence assay (reference value: 2.5); assay type: functional
Fibroblast = experiment: Cytotoxicity against human fibroblasts assessed as cell viability after 48 hrs by Hoechst 33342 staining based assay
[29] = Selectivity index, ratio of IC50 for human fibroblasts to IC50 for human RL cells
Huh-7 [30] = experiment: Cell cycle arrest in human HuH7 cells assessed as mitotic index at 25 uM measured after 48 hrs by Hoechst staining based fluorescence assay (reference value: 2.2); assay type: functional
Caco-2 [31] = experiment: Cell cycle arrest in human Caco2 cells assessed as mitotic index at 10 uM measured after 48 hrs by Hoechst staining based fluorescence assay (reference value: 3.6); assay type: functional
HaCaT [32] = experiment: Cell cycle arrest in human HaCaT cells harboring […] p53 assessed as accumulation at S phase at 10 uM measured after 48 hrs by Hoechst/BrdU staining based fluorescence assay (reference value: 52.3%); assay type: functional
[33] = Selectivity index, ratio of IC50 for human fibroblasts to IC50 for human PC3 cells
NCI-H727 [34] = experiment: Cell cycle arrest in human NCI-H727 cells assessed as accumulation at G1/S phase by Hoechst staining based fluorescence assay; assay type: functional
PC-3 [35] = experiment: Cytotoxicity against human PC3 cells assessed as cell survival at 50 uM after 48 hrs by Hoechst 33342 staining based assay relative to control; assay type: functional; conditions: PC-3, 48 h, read-out: Survival
Huh-7 [36] = experiment: Cell cycle arrest in human HuH7 cells assessed as accumulation at S phase at 10 uM measured after 48 hrs by Hoechst/BrdU staining based fluorescence assay (reference value: 44%); assay type: functional
MCF7 = experiment: Induction of apoptosis in human MCF7 cells harboring wild-type p53 assessed as increase in late apoptosis at 2 times IC50 after 24 hrs by YoPro/propidium iodide/Hoechst staining based assay; assay type: functional, cell-based
PC-3 [37] = experiment: Cell cycle arrest in human PC3 cells harboring p53 mutant assessed as mitotic index at 10 uM measured after 48 hrs by Hoechst staining based fluorescence assay (reference value: 2.5); assay type: functional
HCT-116 [38] = experiment: Cytotoxicity against human HCT116 cells assessed as cell viability after 48 hrs by Hoechst 33342 staining based assay; assay type: functional; conditions: HCT-116, 48 h
Huh-7 [39] = experiment: Cell cycle arrest in human HuH7 cells assessed as mitotic index at 10 uM measured after 48 hrs by Hoechst staining based fluorescence assay (reference value: 2.2); assay type: functional

In the case of `COc1cccc(/C=C/C(=O)c2c(OC)cc(OC)cc2OC)c1`, the Activity (HCT-116 [1]) was “Active”, the Activity (MDA-MB-231 [2]) was “Active” and the Activity_index (MDA-MB-231 [3]) was 25. The Activity (HCT-116 [4]) was “Active”, the pIC50 (HaCaT [5]) was 5.28 and the “Ratio IC50” value [6] was >9.4. The Activity (MDA-MB-231 [7]) was “Active”, the Activity (Caco-2 [8]) was 6% and the viability at 50 µM (MDA-MB-231 [9]) was 4%. For the same compound, the Activity (Caco-2 [10]) was “Active”, the Activity (MDA-MB-231 [11]) was “Active” and the “Ratio IC50” value [12] was >12.8. For the same compound, the Activity (PC-3 [13]) was “Active”, the Activity_index (NCI-H727 [14]) was 1.7 and the “Ratio IC50” value [15] was >5.7. The viability at 50 µM (Huh-7 [16]) was 3%, the Activity (PC-3 [17]) was “Active” and the Activity (PC-3 [18]) was 0.9%. For the same compound, the pIC50 (PC-3 [19]) was 5.51, the “Ratio IC50” value [20] was >5.6 and the viability at 50 µM (HCT-116 [21]) was 0%. For the same compound, the pIC50 (Caco-2 [22]) was 5.41, the pIC50 (Huh-7 [23]) was 5.05 and the “Ratio IC50” value [24] was >6.1. It also gave a viability at 50 µM (Caco-2 [25]) of 2%, a pIC50 (NCI-H727 [26]) of 5.09 and an Activity (HaCaT [27]) of 0%. The Activity_index (PC-3 [28]) was 0.3, the pIC50 (Fibroblast) was < 4.70 and the “Ratio IC50” value [29] was >8.5. It also gave an Activity_index (Huh-7 [30]) of 1, an Activity_index (Caco-2 [31]) of 36.8 and an Activity (HaCaT [32]) of 19%. The “Ratio IC50” value [33] was >16.1, the Activity (NCI-H727 [34]) was “Active” and the viability at 50 µM (PC-3 [35]) was 19%. The Activity (Huh-7 [36]) was 40%, the Activity (MCF7) was “Active” and the Activity_index (PC-3 [37]) was 27.6. The pIC50 (HCT-116 [38]) was 5.37 and the Activity_index (Huh-7 [39]) was 12.3.

For `COc1cccc(/C=C/C(=O)c2c(O)cc(OC)cc2OC)c1`, the Activity (HCT-116 [1]) was “Active”, the Activity (MDA-MB-231 [2]) was “Active” and the Activity_index (MDA-MB-231 [3]) was 4.2. The Activity (HCT-116 [4]) was “Active”, the pIC50 (HaCaT [5]) was 4.98 and the “Ratio IC50” value [6] was 2.6. For the same compound, the Activity (MDA-MB-231 [7]) was “Active”, the Activity (Caco-2 [8]) was 34% and the viability at 50 µM (MDA-MB-231 [9]) was 11%. For the same compound, the Activity (Caco-2 [10]) was “Active”, the Activity (MDA-MB-231 [11]) was “Active” and the “Ratio IC50” value [12] was 2.4. For the same compound, the Activity (PC-3 [13]) was “Active”, the Activity_index (NCI-H727 [14]) was 1.2 and the “Ratio IC50” value [15] was 2. For the same compound, the viability at 50 µM (Huh-7 [16]) was 13%, the Activity (PC-3 [17]) was “Active” and the Activity (PC-3 [18]) was 9.4%. The pIC50 (PC-3 [19]) was 5.14, the “Ratio IC50” value [20] was 1.8 and the viability at 50 µM (HCT-116 [21]) was 0%. The pIC50 (Caco-2 [22]) was 4.95, the pIC50 (Huh-7 [23]) was 4.82 and the “Ratio IC50” value [24] was 1.8. For the same compound, the viability at 50 µM (Caco-2 [25]) was 1%, the pIC50 (NCI-H727 [26]) was 4.83 and the Activity (HaCaT [27]) was 8%. The Activity_index (PC-3 [28]) was 0.4, the pIC50 (Fibroblast) was < 4.70 and the “Ratio IC50” value [29] was 3. For the same compound, the Activity_index (Huh-7 [30]) was 0.1, the Activity_index (Caco-2 [31]) was 14.4 and the Activity (HaCaT [32]) was 49%. The “Ratio IC50” value [33] was 3.7, the Activity (NCI-H727 [34]) was “Active” and the viability at 50 µM (PC-3 [35]) was 22%. For the same compound, the Activity (Huh-7 [36]) was 56%, the Activity (MCF7) was “Active” and the Activity_index (PC-3 [37]) was 4.4. For the same compound, the pIC50 (HCT-116 [38]) was 5.11 and the Activity_index (Huh-7 [39]) was 1.6.

Reference: ChEMBL document CHEMBL3992552, “Mechanisms of action and structure-activity relationships of cytotoxic flavokawain derivatives” (Bioorg Med Chem, 2017)
